Data from US12133527B2, “Insect and tick repellent formulations and methods of use thereof” (priority 2017, dated 2024).

Legend:
skin of human subjects = assay: Human repeat insult patch test for skin irritation and sensitization; assay type: in vivo; settings: positive control
Protocol: To determine the irritation and sensitization (contact allergy) potential of a test material after repeated application to the skin of human subjects three studies were conducted using the formulations of the invention comprising 2-undecanone, soybean oil, polysorbate 20, sorbitan oleate, oil of lemon eucalyptus and denatured alcohol (e.g., test materials).
Test materials to be tested under occlusive conditions were placed on an 8-millimeter aluminum Finn Chamber® (Epitest Ltd. Oy, Tuusula, Finland) supported on Scanpor® Tape (Norgesplaster A/S, Kristiansand, Norway) or an 8 mm filter paper coated aluminum Finn Chamber® AQUA supported on a thin flexible transparent polyurethane rectangular film coated on one side with a medical grade acrylic adhesive, consistent with adhesive used in state-of the-art hypoallergenic surgical tapes or a 7 mm IQ-ULTRA® closed cell system which is made of additive-free polyethylene plastic foam with a filter paper incorporated (It is supplied in units of 10 chambers on a hypoallergenic nonwoven adhesive tape; the width of the tape is 52 mm and the length is 118 mm) or other equivalents. Materials to be tested under semi-occlusive conditions were placed on a test strip with a Rayon/Polypropylene pad or on a 7.5 mm filter paper disc affixed to a strip of hypoallergenic tape (Johnson & Johnson 1 inch First Aid Cloth Tape).
Test materials to be tested in an open patch were applied and rubbed directly onto the back of the subject. Approximately 0.02-0.05 mL (in case of liquids) and/or 0.02-0.05 gm (in case of solids) of the test material was used for the studies. Liquid test material was dispensed on a 7.5 mm paper disk, which fit in the Finn Chamber.
Subjects were requested to bathe or wash as usual before arrival at the facility. Patches containing the test material were then affixed directly to the skin of the intrascapular regions of the back, to the right or left of the midline and subjects were dismissed with instructions not to wet or expose the test area to direct sunlight. Patches remained in place for 48 hours after the first application. Subjects were instructed not to remove the patches prior to their 48 hour scheduled visit. Thereafter, subjects were instructed to remove patches 24 hours after application for the remainder of the study.
This procedure was repeated until a series of nine (9) consecutive, 24-hour exposures had been made three (3) times a week for three (3) consecutive weeks. Prior to each reapplication, the test sites were evaluated by trained laboratory personnel. Following a 10-14 day rest period a retest/challenge dose was applied once to a previously unexposed test site.
Test sites were evaluated by trained laboratory personnel 48 and 96 hours after application.
In the event of an adverse reaction, the area of erythema and edema were measured. Edema was estimated by the evaluation of the skin with respect to the contour of the unaffected normal skin. Subjects were instructed to report any delayed reactions that might occur after the final reading.
Scoring scale and definition of symbols shown below are based on the scoring scheme according to the International Contact Dermatitis Research Group scoring scale [Rietschel, R. L., Fowler, J. F., Ed., Fisher's Contact Dermatitis (fourth ed.). […]

insect or tick = assay: Duration of repellency of 2-undecanone alone (statement, no method); settings: unformulated

Row | SMILES | subjects with a Grade 1 delayed reaction (skin of human subjects; Study I) | subjects with a Grade 1 reaction (skin of human subjects; Study I) | subjects with a Grade 1 reaction (skin of human subjects; Study II) | subjects with Grade 1 reaction (skin of human subjects; Study III) | subjects with Grade 2 reaction (skin of human subjects; Study III) | duration of repellency (insect or tick)
1 | CCCCCCCCCCCCOS(=O)(=O)[O-].[Na+] [2.0% Sodium Lauryl Sulfate Solution, Sodium Lauryl Sulfate] | 4 subjects | 35 subjects | 10 subjects | Two | two | –
2 | CCCCCCCCCC(C)=O [Soybean 2-undecanone, 2-undecanone] | – | – | – | – | – | less than 30 min
